Data on 4 compounds can be found in paper PMC12442081, “Combating Fuel Biocontamination: Tailored Antimicrobial Peptides and an Innovative Delivery Strategy” (ACS Applied Bio Materials, 2025).

The test system of series [1] is Bacillus licheniformis (BL) ATCC 14580. It counts as cell-based. The settings on record: ATCC 14580. Here is the method:
(§1) All of the bacterial species were grown overnight at 37 °C in LB broth. 10^7 CFU/mL of cells were resuspended in fresh culture and grown until the mid log phase. , The bacterial cells were adjusted to a concentration of 5 × 10^5 CFU/mL to quantify the MIC. Equal volumes of the respective bacterial cultures were incubated with the serially diluted peptides in 96-well microtiter plate and incubated overnight at 37 °C in ambient air. Microorganisms without peptides were treated as the positive control, while uninoculated broth was used as the negative control. The MIC was taken as the lowest peptide concentration at which observable bacteria growth was inhibited, as measured by a microplate reader (Biotek Synergy H1 microplate reader). Experiments were performed in triplicates, and the mean MIC values were determined. A similar study was performed to understand the effect of peptide purity, i.e., ranging from 70 to 95%, on the peptide MIC.

For series [2], the system named is Micrococcus yunnanensis (MY) ATCC 12698. Type of series: cell-based. The procedure:
as §1

The subject of series [3] is Kocuria rosea (KR) ATCC 186. Type of series: cell-based. The procedure:
as §1

Series [4] deals with Sphingomonas paucimobilis (SP). It counts as cell-based. The procedure: as §1
Series [5] deals with Macrococcus caseolyticus (MC) ATCC 13548. It counts as cell-based. The procedure:
as §1

In series [6] the test system is microbial clusters MY, KR, DN, MC, BL, RM, SP, PA, HR. The series can be described thus: Broad-spectrum activity score (in-house scoring matrix). The settings on record: sum over 9 microbial clusters: (+) = 1, (X) = 0, Fuel x = -1. Here is the method:
Table S4. Summarizing the broad-spectrum activity of the peptides, considering the MIC value/ efficacy to control microbial growth upon fuel co-incubation
Peptides Bacterial clusters Fungal
Actinobacteria Firmicutes Proteobacteria Asco- […]
Peptides identified based on the scoring matrix, where (+) =1 (implying peptide activity in fuel environment); (X) = 0 (implying no activity in the desired range, indicated by microbial proliferation); Fuel x = -1(implying no activity in fuel environment).
Clearly, P17 is the best performing peptide in vitro across diverse microbial phyla as well as when incubated in the fuel environment. Based on the activity of the selected peptides, the best

Series [7] is described as follows: HPLC retention time as a function of peptide hydrophobicity. Type of series: physicochemical. The settings on record: chromatographic, Polaris 5 C18-A reverse phase, 0.1% TFA water / 0.1% TFA acetonitrile gradient, 30 min, 300 μM peptide. The procedure:
The purity of the peptides was ascertained by high-performance liquid chromatography (HPLC) using Polaris 5 C18-A […] × 4.6 mm reverse phase Zorbax columns from Agilent Technologies. The buffer system contained 0.1% (v/v) TFA in 100% water and 0.1% (v/v) TFA in 100% acetonitrile. Each peptide sample contained 300 μM peptides dissolved in an acetonitrile–water (1:4) mixture. A constant gradient of the two solvent systems was used to generate the chromatogram for 30 min after sample injection.

The test system of a further series is Roseomonas mucosa (RM). Description: Effectiveness of peptides on spiked fuel samples (aqueous layer). Type of series: cell-based. Further details: key: (+) =1 (implying peptide activity in fuel environment); (X) = 0 (implying no activity in the desired range, indicated by microbial proliferation); Fuel x = -1(implying no activity in fuel environment). The settings on record: initial screening in spiked fuel. The procedure: (§2) To study the partitioning of microbes in fuel tanks, filter-sterilized fuel was mixed with BH medium in a 1:1 (v/v) ratio. The inoculum was added to the aqueous phase at the bottom to simulate growth in the aqueous layer of fuel tanks and incubated aerobically at 30 °C for 30 days. Visible growth was assessed, and aliquots from both the aqueous and fuel phases were plated on nutrient agar plates to evaluate microbial growth. Peptides were initially added to the aqueous layer of microbially spiked fuel samples for screening the effectiveness in the fuel environment. The study was further extended over a longer duration, and incubated under aerobic conditions at 30 °C for 30 days. Microbial growth was monitored at regular intervals by plating aliquots from the aqueous layer on the nutrient agar plates.
(§3) The engineered peptides were administered at their respective MICs to the aqueous layer of simulated fuel samples, and samples from both the aqueous and solvent (fuel) layers were removed at intervals of 7, 14, 21, and 30 days and plated on LBA plates to assess cell viability (Table S5).

In series [8] the test system is Dermacoccus nishinomiyaensis (DN). The description is as above. Type of series: cell-based. Also noted: key: (+) =1 (implying peptide activity in fuel environment); (X) = 0 (implying no activity in the desired range, indicated by microbial proliferation); Fuel x = -1(implying no activity in fuel environment). The settings on record: initial screening in spiked fuel. Here is the method:
as §2, §3

The test system of a further series is Kocuria rosea (KR). Described as above. It counts as cell-based. Further details: key: (+) =1 (implying peptide activity in fuel environment); (X) = 0 (implying no activity in the desired range, indicated by microbial proliferation); Fuel x = -1(implying no activity in fuel environment). The settings on record: initial screening in spiked fuel. The procedure: as §2, §3

In series [9] the test system is Pseudomonas aeruginosa (PA). Described as above. Type of series: cell-based. Further details: key: (+) =1 (implying peptide activity in fuel environment); (X) = 0 (implying no activity in the desired range, indicated by microbial proliferation); Fuel x = -1(implying no activity in fuel environment). The settings on record: initial screening in spiked fuel. The procedure:
as §2, §3

For the next series, the system named is Hormoconis resinae (HR). Described as above. Type of series: cell-based. Also noted: key: (+) =1 (implying peptide activity in fuel environment); (X) = 0 (implying no activity in the desired range, indicated by microbial proliferation); Fuel x = -1(implying no activity in fuel environment). The settings on record: initial screening in spiked fuel. The procedure: as §2, §3

The test system of series [10] is Sphingomonas paucimobilis (SP). The series is described as above. Type of series: cell-based. Further details: key: (+) =1 (implying peptide activity in fuel environment); (X) = 0 (implying no activity in the desired range, indicated by microbial proliferation); Fuel x = -1(implying no activity in fuel environment). The settings on record: initial screening in spiked fuel. Here is the method:
as §2, §3

In series [11] the test system is Bacillus licheniformis (BL). The series is described as above. Type of series: cell-based. Further details: key: (+) =1 (implying peptide activity in fuel environment); (X) = 0 (implying no activity in the desired range, indicated by microbial proliferation); Fuel x = -1(implying no activity in fuel environment). The settings on record: initial screening in spiked fuel. Here is the method: as §2, §3

The subject of series [12] is Macrococcus caseolyticus (MC). Described as above. The settings on record: initial screening in spiked fuel. It counts as cell-based. Further details: key: (+) =1 (implying peptide activity in fuel environment); (X) = 0 (implying no activity in the desired range, indicated by microbial proliferation); Fuel x = -1(implying no activity in fuel environment). The procedure:
as §2, §3

Series [13] deals with Micrococcus yunnanensis (MY). The series is described as above. Also noted: key: (+) =1 (implying peptide activity in fuel environment); (X) = 0 (implying no activity in the desired range, indicated by microbial proliferation); Fuel x = -1(implying no activity in fuel environment). Type of series: cell-based. The settings on record: initial screening in spiked fuel. Here is the method: as §2, §3

Series [14] deals with Dermacoccus nishinomiyaensis (DN) ATCC 29093. It counts as cell-based. Here is the method:
as §1

Consider `CC[C@H](C)[C@H](N)C(=O)N[C@@H](CC(C)C)C(=O)N[C@@H](Cc1ccccc1)C(=O)N[C@@H](Cc1c[nH]c2ccccc12)C(=O)N[C@@H](CCCCN)C(=O)N[C@@H](Cc1c[nH]c2ccccc12)C(=O)N1CCC[C@H]1C(=O)N[C@@H](Cc1c[nH]c2ccccc12)C(=O)N[C@@H](Cc1c[nH]c2ccccc12)C(=O)N1CCC[C@H]1C(=O)N[C@@H](Cc1c[nH]c2ccccc12)C(=O)N[C@@H](CCCNC(=N)N)C(=O)N[C@@H](CCCNC(=N)N)C(=O)O` [P16], for which the MIC (in general, the lowest concentration found to suppress growth) in series [1] was 0.9 µM; in series [2] it was 0.9 µM; in series [3], 1.9 µM; in series [4], 0.9 µM; in series [5] it was 125 µM. In [6], this compound showed a Score of 4. Moreover, the “R t, retention time of peptide on HPLC column as a function of peptide hydrophobicity” value (“R t, retention time of peptide” below) in [7] turned out to be 14.075 min. For the same compound, the “activity considering MIC value/efficacy upon fuel co-incubation” value with Roseomonas mucosa (RM) is reported as “X”; in series [8], “X”; with Kocuria rosea (KR) it was “+”; in series [9], “X”; in the series with Hormoconis resinae (HR) it was “X”; in series [10], “+”. Moreover, the “activity considering MIC value/efficacy upon fuel co-incubation” value in series [11] is listed as “+”; in series [12], “X”; in series [13], “+”.

On to `CC[C@H](C)[C@H](N)C(=O)N[C@@H](CC(C)C)C(=O)N[C@@H](CC(C)C)C(=O)N[C@@H](Cc1c[nH]c2ccccc12)C(=O)N[C@@H](CCCCN)C(=O)N[C@@H](Cc1c[nH]c2ccccc12)C(=O)N1CCC[C@H]1C(=O)N[C@@H](Cc1c[nH]c2ccccc12)C(=O)N[C@@H](Cc1c[nH]c2ccccc12)C(=O)N1CCC[C@H]1C(=O)N[C@@H](Cc1c[nH]c2ccccc12)C(=O)N[C@@H](CCCNC(=N)N)C(=O)N[C@@H](CCCNC(=N)N)C(=O)O` [P19], for which the minimal inhibitory concentration (MIC) in series [14] worked out at 0.9 µM; in series [1], 1.9 µM; in [2] it was 0.9 µM; in series [3] it was 3.9 µM; in [4], 0.9 µM. The Score in series [6] was found to be 3. Also, the “R t, retention time of peptide” value in series [7] was 13.667 min. Also, the “activity considering MIC value/efficacy upon fuel co-incubation” value is given as “X” in the series on Roseomonas mucosa (RM); “+” in [8]; “Fuel x” with Kocuria rosea (KR); “X” in series [9]; “X” in the series with Hormoconis resinae (HR); “+” in [10]. The “activity considering MIC value/efficacy upon fuel co-incubation” value in [11] is listed as “+”; in [12], “X”; in series [13], “+”.

In the case of `CC[C@H](C)[C@H](N)C(=O)N[C@@H](CC(C)C)C(=O)N[C@H](C(=O)N[C@@H](Cc1c[nH]c2ccccc12)C(=O)N[C@@H](CCCCN)C(=O)N[C@@H](Cc1c[nH]c2ccccc12)C(=O)N1CCC[C@H]1C(=O)N[C@@H](Cc1c[nH]c2ccccc12)C(=O)N[C@@H](Cc1c[nH]c2ccccc12)C(=O)N1CCC[C@H]1C(=O)N[C@@H](Cc1c[nH]c2ccccc12)C(=O)N[C@@H](CCCNC(=N)N)C(=O)N[C@@H](CCCNC(=N)N)C(=O)O)[C@@H](C)CC` [P18], the MIC in series [14] was 0.9 µM; in series [1], 1.9 µM; in series [2] it was 0.9 µM; in [3] it was 0.9 µM; in [4] it was 0.9 µM; in series [5], 31.25 µM. Besides, the Score in series [6] is given as 3. Further, in series [7], the “R t, retention time of peptide” value was 13.314 min. The “activity considering MIC value/efficacy upon fuel co-incubation” value with Roseomonas mucosa (RM) is “X”; in [8] it was “Fuel x”; in the series on Kocuria rosea (KR) it was “+”; in series [9], “X”; in the series on Hormoconis resinae (HR), “X”; in series [10], “+”. The “activity considering MIC value/efficacy upon fuel co-incubation” value in [11] is listed as “+”; in [12], “X”; in series [13], “+”.

Turning to `CC(C)C[C@H](NC(=O)[C@@H](N)Cc1ccc(O)cc1)C(=O)N1CCC[C@H]1C(=O)N[C@@H](Cc1c[nH]c2ccccc12)C(=O)N[C@@H](CCCCN)C(=O)N[C@@H](Cc1c[nH]c2ccccc12)C(=O)N1CCC[C@H]1C(=O)N[C@@H](Cc1c[nH]c2ccccc12)C(=O)N[C@@H](Cc1c[nH]c2ccccc12)C(=O)N1CCC[C@H]1C(=O)N[C@@H](Cc1c[nH]c2ccccc12)C(=O)N[C@@H](CCCNC(=N)N)C(=O)N[C@@H](CCCNC(=N)N)C(=O)O` [P14], the MIC came to 3.9 µM in series [1], 0.9 µM in series [3] and 0.9 µM in series [4]. The same compound came in with a Score in series [6] of 1. Further, in [7], the “R t, retention time of peptide” value was found to be 12.279 min. The “activity considering MIC value/efficacy upon fuel co-incubation” value with Roseomonas mucosa (RM) was “X”; in series [8], “X”; with Kocuria rosea (KR), “Fuel x”; in series [9], “X”; in the series with Hormoconis resinae (HR) it was “X”; in series [10] it was “+”. Moreover, the “activity considering MIC value/efficacy upon fuel co-incubation” value in series [11] is reported as “+”; in [12], “X”; in [13] it was “X”.
